One assay concerns VLCFAs. The experiment in a line: Assay of very long chain fatty acids by gas chromatography in bubblegum flies. It counts as in vivo, Drosophila. Particulars: male mutant flies treated from larval stage, 15 days old, compared with parental strain. Here is the method:
Assay of very long chain fatty acids by gas chromatography. To determine whether bubblegum has an accumulation of VLCFAs, fatty acid analysis by gas chromatography was performed on 15 day old flies, comparing homozygous mutant flies with those of the parent strain from which bubblegum was derived.
Extracts of whole male or female flies were used for purification and methylation of fatty acids. Gas chromatography was performed with a HP-5MS column (30 m×0.25 mm, 0.25-μm film thickness) and mass spectrometry was used to analyze the fatty acid methyl esters. Identification and measurement of fatty acid concentrations were based on an oil reference standard (NHI-F) from Sigma Co. and the C15 added as an internal standard.
(§1) To determine whether similar dietary treatment can reduce the level of C26 and/or prevent the pathology seen in bubblegum, 2.5% of GTO oil was added to the normal corn meal-yeast-agar medium. […] However, knowing that oil treatment in ALD was not able to prevent the progression of the disease once patients had shown neurological symptoms, we decided to treat mutant flies with the oil at pre-adult stages. First instar larvae were raised in the oil-containing medium until eclosion and the adult flies were then transferred into fresh medium, still containing the oil, changed every 3 days.

In a further assay the test system is C26. The note with it: ALD, feeding GTO oil, within 4 months; cited from earlier work.
The subject of assay [1] is bubblegum mutant flies. The experiment in a line: Countercurrent phototaxis test. Particulars: 5 day old bubblegum raised with the oil from the larval stage. It counts as in vivo, Drosophila. From the text:
Phototactic analysis. In ALD, visual loss is on of the clinical symptoms, and anatomical analysis has shown abnormalities of the optic nerve and degeneration of ganglion cell layer. Flies transformed with P-elements expressing eye pigment, as is the case for bubblegum, are phototactic. A countercurrent phototaxis test was used to examine the visual behavior of bubblegum. […] Therefore, the oil treatment can prevent the biochemical, structural, and physiological defects caused by the mutation.
Flies were placed in a countercurrent distribution apparatus and responses to light were analyzed. Each numbered tube represents the number of positive responses in a total of 5 trials. In control tests for the from-light response, neither group of flies moved away from light.

The subject of assay [2] is bubblegum mutant flies. Kind of assay: Lifespan of bubblegum mutant flies. It counts as in vivo, Drosophila. Particulars: male mutant flies treated with oil from larval stage. Here is the method: Mutagenesis and screen. Drosophilia lines carrying P(lacZ, w+) were screened for mutations causing reduced lifespan at 29° C.
as §1

Assay [3] has as its system bubblegum mutant flies. The experiment in a line: Brain (lamina) degeneration in bubblegum mutant flies by light and electron microscopy. In kind it is in vivo, Drosophila. The note with it: for degeneration: male mutant flies raised in oil-containing medium from first instar larvae, 15 day-old adults. On the procedure:
Tissue preparation for microscopy. Fly heads were prepared by fixation in 1% paraformaldehyde+1% glutaraldehyde, postfixation in 1% osmium tetroxide, dehydration in an ethanol series, and embedding in Epon 812. For light microscopy, […] were stained with 1% toludine blue 1% Borax. For electron microscopy, ultrathin sections (80 nm) were examined with a Philips 201 electron microscope at 60 kV.
as §1

Entries after “also recorded” stand apart in the source; their conditions may differ.

For the molecule `CCCCCCCC/C=C\CCCCCCCC(=O)OCC(COC(=O)CCCCCCC/C=C\CCCCCCCC)OC(=O)CCCCCCC/C=C\CCCCCCCC` [GTO, glyceryl trioleate], the “levels of VLCFAs” value in the assay on VLCFAs is on record as “becoming normal”; in the assay with VLCFAs (listed as GTO oil), “reduced to normal”. Besides, in the assay on C26, the “reduction of the level of C26 in plasm” value is “about 50%”. The “phototactic response (response to the light)” value in the assay on bubblegum mutant flies [1] was “greatly enhanced response to the light”; in the assay on bubblegum mutant flies [1] (listed as oil), “showed a phototactic response”. In addition, the lifespan entry in the assay with bubblegum mutant flies [2] is given as “recovered”. In addition, the “onset of brain degeneration” value in the assay on bubblegum mutant flies [3] (adult mutant flies transferred to medium with 2.5% GTO oil, fed 15 days following emergence) was “reduced only slightly”. The age-dependent degeneration phenotype result with bubblegum mutant flies [3] (homozygous females fed the oil) is recorded as “similarly prevented”. Also, the degeneration entry is recorded as “largely prevented; also recorded: prevented the onset of degeneration” in the assay with bubblegum mutant flies [3] and “largely been prevented” in the assay with bubblegum mutant flies [3] (listed as GTO oil).

These data come from patent US6664039B1, “Methods and compositions for modulating neurodegeneration” (California Institute of Technology, priority 1998, dated 2003).
